US20130035321A1, “COMPOUNDS FOR THE TREATMENT OF OCULAR CANCER” (AnalytiCon Discovery GmbH, priority 2009, published 2013)
“Also recorded” adds a separate entry of the source. Like-named read-outs stand apart in the source and are kept apart here.

Experiments:
[1] = tested on: Y79 cells; test: Cytotoxicity dose response in 384-well plates (Alamar Blue), Y79; type: cell-based, human; conditions: for activity toward Y79 cells below 100 μM: upper limit 100 μM; for IC50: read-out: IC50 toward Y79 cells
Method: (§1) Dose response studies were performed in 384-well microtiter plates (#3712, Corning Inc., Corning, N.Y.) according to the following protocol: cells were added in 45 μL medium to the screening plates using Flexdrop. After 72 h incubation was added 5 μL Alamar Blue using Flexdrop. The cells were then incubated for another 24 h, and the fluorescence intensity was read on LEADseeker™ Multimodality Imaging System as previously described. To calculate the IC50 for each compound toward each cell line, the dose response was assessed in duplicate and using 12 point doubling dilutions with 100 μM compound concentration as the upper limit. The dose response curve for each set of data was fitted separately, and the two IC50 values obtained were averaged.
as §1, with “averaged. […] IC50 of 0.1 corresponds to <0.1 μM and IC50 of 100 corresponds to >100 μM.” for “averaged.”

[2] = tested on: RB355 cells; test: Cytotoxicity dose response in 384-well plates (Alamar Blue), RB355; type: cell-based, human; conditions: for activity toward RB355 cells below 100 μM: upper limit 100 μM
Method: as §1
as §1, with “averaged. […] IC50 of 0.1 corresponds to <0.1 μM and IC50 of 100 corresponds to >100 μM.” for “averaged.”

[3] = tested on: stage Vb retinoblastoma; type: in vivo, human
[4] = tested on: Y79 cells; type: cell-based, human
[5] = tested on: Y79, RB355, WERI-Rb-1 and C918 ocular cancer cell lines; test: Dose response (SAR) of 35 cardenolides in a panel of four ocular cancer cell lines; type: cell-based, human; conditions: panel Y79, RB355, WERI-Rb-1, C918
Method: as §1
To explore the structure activity relationship (SAR) within this chemical class a collection of 35 cardenolides and derivatives was constituted. The dose response for each compound toward the ocular cancer cell lines Y79, RB355, WERI-Rb-1 and C918 was then assessed.

[6] = tested on: Y79 cells; type: cell-based, human; remark: listed apart in the source
[7] = tested on: Y79LUC cells; test: Subcutaneous Y79LUC xenograft model of retinoblastoma; type: in vivo, mouse
Method: Subcutaneous xenograft experiments were performed at the Memorial Sloan-Kettering Cancer Center Antitumor Assessment Core Facility. Y79LUC cells (10E6) embedded in matrigel (BD Biosciences, San Jose, Calif.) were injected subcutaneously in the right flank of 8-weeks old ICR/SCID male mice. Treatment started when the tumors reached approximately 250 mm^3. The mice were randomized into three groups and two mice per group were treated with either 10% DMSO (v/v) (control group), 1.5 mg/kg ouabain or 15 mg/kg ouabain. Treatment was performed by continuous subcutaneous infusion using osmotic minipumps (#1007D, Alzet, Cupertino, Calif.). Tumor size was measured externally two times a week with a caliper. Body weight of each mouse was monitored as well as other signs of toxicity throughout the treatment period. Bioluminescent imaging of the tumors was performed once a week and prior to sacrifice as follows: mice were anesthetized by isofluorane inhalation and injected with D-luciferin at 50 mg/Kg (Xenogen) intraperitoneally; photonic emission was measured with the In Vivo Imaging System (IVIS 200, Xenogen) with a collection time of 5 seconds.
The therapeutic effect of the drug ouabain in a mouse xenograft model of retinoblastoma was also investigated. Three groups of two 8 weeks old ICR/SCID male mice bearing Y79 tumors implanted in the flank were treated with either vehicle only, 1.5 mg/kg ouabain or 15 mg/kg ouabain. Mice were continuously infused subcutaneously using an osmotic minipump delivery system. […] In comparison, tumors in the vehicle-treated control group continuously grew, necessitating to euthanize the animals at day 19.

[8] = Homo sapiens, read-out: IC50 toward RB355 cells

C=C1/C(=C\C=C2/CCC[C@]3(C)[C@@H]([C@H](C)CCCC(C)(C)O)CC[C@@H]23)C[C@@H](O)C[C@@H]1O [calcitriol]
activity toward Y79 cells below 100 μM [1]: did not demonstrate any significant activity toward Y79 cells below 100 μM | activity toward RB355 cells below 100 μM [2]: neither caboplatin or calcitriol had any significant activity below 100 μM

N.N.O=C([O-])C1(C(=O)[O-])CCC1.[Pt+2] [carboplatin]
activity toward Y79 cells below 100 μM [1]: did not demonstrate any significant activity toward Y79 cells below 100 μM | activity toward RB355 cells below 100 μM [2]: neither caboplatin or calcitriol had any significant activity below 100 μM

N.N.[Cl][Pt][Cl] [cisplatin]
activity toward Y79 cells below 100 μM [1]: did not demonstrate any significant activity toward Y79 cells below 100 μM | maximum inhibition toward RB355 cells ([2]; at 100 μM): 65%

C[C@H]1O[C@@H](O[C@H]2[C@@H](O)C[C@H](O[C@H]3[C@@H](O)C[C@H](O[C@H]4CC[C@@]5(C)[C@H](CC[C@@H]6[C@@H]5C[C@@H](O)[C@]5(C)[C@@H](C7=CC(=O)OC7)CC[C@]65O)C4)O[C@@H]3C)O[C@@H]2C)C[C@H](O)[C@@H]1O [digoxin]
exam three weeks after intraarterial infusion ([3]; in vivo): Exam remained stable | exam three weeks after second round of intraarterial infusion ([3]; in vivo): decreased tumor size, fewer vitreous seeds, and resolution of the retinal detachment | exam three weeks after third intraarterial dose ([3]; in vivo): measurable but modest improvement but residual active disease | reexamination after oral treatment ([3]; in vivo, po): progression of disease

COc1cc([C@@H]2c3cc4c(cc3[C@@H](O[C@@H]3O[C@@H]5CO[C@@H](C)O[C@H]5[C@H](O)[C@H]3O)[C@H]3COC(=O)[C@H]23)OCO4)cc(OC)c1O [etoposide]
IC50 ([1]; Homo sapiens, Y79): 11 µM | IC50 [2, 8]: 0.97 µM | apoptosis (activated Caspase-3) compared to baseline [4]: induced significant apoptosis

N[C@@H](Cc1ccc(N(CCCl)CCCl)cc1)C(=O)O [melphalan]
response to intraarterial chemotherapy ([3]; three cycles, administered elsewhere before presentation): incomplete response; also recorded: no regression on the main tumor or vitreous seeds

COc1ccc(C2=N[C@@H](c3ccc(Cl)cc3)[C@@H](c3ccc(Cl)cc3)N2C(=O)N2CCNC(=O)C2)c(OC(C)C)c1 [nutlin-3]
IC50 [1]: 78 µM | IC50 ([2]; read-out: IC50 toward RB355 cells): 11 µM

C[C@@H]1O[C@@H](O[C@H]2C[C@@H](O)[C@]3(CO)[C@H]4[C@H](O)C[C@]5(C)[C@@H](C6=CC(=O)OC6)CC[C@]5(O)[C@@H]4CC[C@]3(O)C2)[C@H](O)[C@H](O)[C@H]1O [ouabain]
activity across the panel of ocular cell lines [5]: potent activity across the entire panel of ocular cell lines tested | effect on Y79 cells in Yo-Pro pilot study [6]: eradicated Y79 cells | IC50 ([1]; Homo sapiens, Y79): 0.65 µM | IC50 [2, 8]: 0.4 µM | tumor burden compared to the control group ([7]; 1.5 mg/kg, continuous subcutaneous infusion): seemed to reduce the tumor burden | tumor burden by bioluminescent imaging ([7]; 15 mg/kg, continuous subcutaneous infusion by minipump, after 14 days of treatment): complete tumor regression | average tumor size ([7]; 15 mg/kg, day 14, caliper): 18 mm^3 | toxicity (average body weight, signs of toxicity) ([7]; 15 mg/kg, throughout treatment period): did not induce any significant toxicity; also recorded: no signs of toxicity were observed | apoptosis (activated Caspase-3) compared to baseline [4]: induced significant apoptosis; also recorded: induces apoptosis

CC[C@]1(O)C[C@H]2CN(CCc3c([nH]c4ccccc34)[C@@](C(=O)OC)(c3cc4c(cc3OC)N(C=O)[C@H]3[C@@](O)(C(=O)OC)[C@H](OC(C)=O)[C@]5(CC)C=CCN6CC[C@]43[C@@H]65)C2)C1 [vincristine]
plateau of inhibition toward Y79 cells ([1]; plateau prevented calculation of IC50): 50% | IC50 ([2]; Homo sapiens, read-out: IC50 toward RB355): 0.0016 µM | apoptosis (activated Caspase-3) compared to baseline [4]: induced significant apoptosis
